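Five compound concentrations were applied to cells in 96-well plates for 48 hours; endpoints were derived by simple linear interpolation of the resulting dose-response curve. GI50 = concentration required for 50% inhibition of growth. At the TGI there is no net growth.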
Key:
Test in all cases: DTP human tumour cell line panel, 48 h
HOP-62 NSCLC = tested on: HOP-62 NSCLC
HT29 colon = tested on: HT29 colon
SK-OV-3 ovarian = tested on: SK-OV-3 ovarian
SNB-19 CNS = tested on: SNB-19 CNS
SF-268 CNS = tested on: SF-268 CNS
KM12 colon = tested on: KM12 colon
CCRF-CEM leukemia = tested on: CCRF-CEM leukemia
TK-10 renal = tested on: TK-10 renal
DU-145 prostate = tested on: DU-145 prostate
MCF7 breast = tested on: MCF7 breast
MALME-3M melanoma = tested on: MALME-3M melanoma
SK-MEL-28 melanoma = tested on: SK-MEL-28 melanoma
UO-31 renal = tested on: UO-31 renal
NCI-H460 lung = tested on: NCI-H460 lung
IGROV1 ovarian = tested on: IGROV1 ovarian
OVCAR-4 ovarian = tested on: OVCAR-4 ovarian
RPMI-8226 leukemia = tested on: RPMI-8226 leukemia
SNB-75 CNS = tested on: SNB-75 CNS
SK-MEL-5 melanoma = tested on: SK-MEL-5 melanoma
HS 578T breast = tested on: HS 578T breast
SR leukemia = tested on: SR leukemia
HCC-2998 colon = tested on: HCC-2998 colon
A549 NSCLC = tested on: A549 NSCLC
OVCAR-5 ovarian = tested on: OVCAR-5 ovarian
NCI-H522 lung = tested on: NCI-H522 lung
ACHN renal = tested on: ACHN renal
CAKI-1 renal = tested on: CAKI-1 renal
UACC-62 melanoma = tested on: UACC-62 melanoma
BT-549 breast = tested on: BT-549 breast
SK-MEL-2 melanoma = tested on: SK-MEL-2 melanoma
RXF 393 renal = tested on: RXF 393 renal
LOX IMVI melanoma = tested on: LOX IMVI melanoma
SN12C renal = tested on: SN12C renal
COLO 205 colon = tested on: COLO 205 colon
NCI-H23 lung = tested on: NCI-H23 lung
NCI-H226 lung = tested on: NCI-H226 lung
SW-620 colon = tested on: SW-620 colon
OVCAR-8 ovarian = tested on: OVCAR-8 ovarian
PC-3 prostate = tested on: PC-3 prostate
A498 renal = tested on: A498 renal
HCT-15 colon = tested on: HCT-15 colon
T-47D breast = tested on: T-47D breast
SF-539 CNS = tested on: SF-539 CNS
M14 melanoma = tested on: M14 melanoma
K-562 leukemia = tested on: K-562 leukemia
HL-60(TB) leukemia = tested on: HL-60(TB) leukemia
HOP-92 NSCLC = tested on: HOP-92 NSCLC
786-0 renal = tested on: 786-0 renal
NCI/ADR-RES ovarian = tested on: NCI/ADR-RES ovarian
MDA-MB-435 = tested on: MDA-MB-435
OVCAR-3 ovarian = tested on: OVCAR-3 ovarian
MOLT-4 leukemia = tested on: MOLT-4 leukemia
MDA-MB-231 breast = tested on: MDA-MB-231 breast
U251 CNS = tested on: U251 CNS
HCT-116 colon = tested on: HCT-116 colon
SF-295 CNS = tested on: SF-295 CNS
UACC-257 melanoma = tested on: UACC-257 melanoma

## CN1CCCCC1CCN1c2ccccc2Sc2ccc(Br)cc21 (centres undefined)
HOP-62 NSCLC
  GI50: 5.46 µM
  TGI: 22.8 µM
HT29 colon
  GI50: 2.51 µM
  TGI: 6.92 µM
SK-OV-3 ovarian
  GI50: 3.44 µM
  TGI: 12.3 µM
SNB-19 CNS
  GI50: 2.92 µM
  TGI: 12.4 µM
SF-268 CNS
  GI50: 2.44 µM
  TGI: 6.61 µM
KM12 colon
  GI50: 2.22 µM
  TGI: 4.78 µM
CCRF-CEM leukemia
  GI50: 2.77 µM
  TGI: 10.1 µM
TK-10 renal
  GI50: 1.99 µM
  TGI: 5.14 µM
DU-145 prostate
  GI50: 3.7 µM
  TGI: 12.6 µM
MCF7 breast
  GI50: 2.06 µM
  TGI: 4.27 µM
MALME-3M melanoma
  GI50: 2.08 µM
  TGI: 4 µM
SK-MEL-28 melanoma
  GI50: 2.04 µM
  TGI: 4.37 µM
UO-31 renal
  GI50: 2.68 µM
  TGI: 10.8 µM
NCI-H460 lung
  GI50: 2.29 µM
  TGI: 5.01 µM
IGROV1 ovarian
  GI50: 2.37 µM
  TGI: 6.37 µM
OVCAR-4 ovarian
  GI50: 3.6 µM
  TGI: 13.6 µM
RPMI-8226 leukemia
  GI50: 2.24 µM
  TGI: 5.49 µM
SNB-75 CNS
  GI50: 1.65 µM
  TGI: 5.56 µM
SK-MEL-5 melanoma
  GI50: 1.78 µM
  TGI: 3.47 µM
HS 578T breast
  GI50: 2.06 µM
  TGI: 5.85 µM
SR leukemia
  GI50: 3.12 µM
  TGI: 8.24 µM
HCC-2998 colon
  GI50: 1.97 µM
  TGI: 4.11 µM
A549 NSCLC
  GI50: 2.71 µM
  TGI: 8.19 µM
OVCAR-5 ovarian
  GI50: 2.45 µM
  TGI: 7.65 µM
NCI-H522 lung
  GI50: 1.73 µM
  TGI: 3.49 µM
ACHN renal
  GI50: 3.54 µM
  TGI: 11.9 µM
CAKI-1 renal
  GI50: 2.97 µM
  TGI: 10.9 µM
UACC-62 melanoma
  GI50: 1.83 µM
  TGI: 4.1 µM
BT-549 breast
  GI50: 4.17 µM
  TGI: 17.7 µM
SK-MEL-2 melanoma
  GI50: 2.5 µM
  TGI: 5.94 µM
RXF 393 renal
  GI50: 2.18 µM
  TGI: 6.46 µM
LOX IMVI melanoma
  GI50: 1.99 µM
  TGI: 3.91 µM
SN12C renal
  GI50: 3.23 µM
  TGI: 11.9 µM
COLO 205 colon
  GI50: 2.04 µM
  TGI: 4.2 µM
NCI-H23 lung
  GI50: 4.44 µM
  TGI: 17.1 µM
NCI-H226 lung
  GI50: 11.8 µM
  TGI: 28.8 µM
SW-620 colon
  GI50: 2.08 µM
  TGI: 5.04 µM
OVCAR-8 ovarian
  GI50: 2.11 µM
  TGI: 4.47 µM
PC-3 prostate
  GI50: 2.81 µM
  TGI: 8.76 µM
A498 renal
  GI50: 2.21 µM
  TGI: 7.08 µM
HCT-15 colon
  GI50: 3.17 µM
  TGI: 10.2 µM
T-47D breast
  GI50: 3.61 µM
  TGI: 14.4 µM
SF-539 CNS
  GI50: 2.02 µM
  TGI: 4.01 µM
M14 melanoma
  GI50: 1.83 µM
  TGI: 3.34 µM
K-562 leukemia
  GI50: 2.18 µM
  TGI: 5.98 µM
HL-60(TB) leukemia
  GI50: 2.06 µM
  TGI: 4.65 µM
HOP-92 NSCLC
  GI50: 1.4 µM
  TGI: 4.72 µM
786-0 renal
  GI50: 2.14 µM
  TGI: 4.79 µM
NCI/ADR-RES ovarian
  GI50: 1.98 µM
  TGI: 4.13 µM
MDA-MB-435
  GI50: 1.98 µM
  TGI: 4.24 µM
OVCAR-3 ovarian
  GI50: 3.36 µM
  TGI: 11.7 µM
MOLT-4 leukemia
  GI50: 2.83 µM
  TGI: 7.83 µM
MDA-MB-231 breast
  GI50: 1.8 µM
  TGI: 4.18 µM
U251 CNS
  GI50: 2.13 µM
  TGI: 4.66 µM
HCT-116 colon
  GI50: 1.88 µM
  TGI: 3.67 µM
SF-295 CNS
  GI50: 2.13 µM
  TGI: 4.94 µM
UACC-257 melanoma
  GI50: 1.91 µM
  TGI: 3.55 µM
